Values of other authors as cited in US12466782B2, “Arylcyclohexylamine derivatives and process for preparing same” (Technische Hochschule Köln, priority 2020, dated 2025).

Settings: mouse model

With `NC1(c2ccccc2Cl)CCCC(O)C1=O` (stereo not shown) [6-hydroxynorketamine] as the compound, how does the “dose at which an effect comparable to that of 10 mg/kg ketamine was observed” value read?
Its value is at least 25 mg/kg.
